Assays:
SW-620 [1] = assay: Growth inhibition of human SW620 cells assessed as cell growth at 5X10'-7 M after 48 hrs by sulforhodamine B assay; type: functional; conditions: SW-620, 48 h, read-out: Activity
MDA-MB-468 = assay: Growth inhibition of human MDA-MB-468 cells assessed as cell growth at 5X10'-6 M after 48 hrs by sulforhodamine B assay; type: functional; conditions: MDA-MB-468, 48 h, read-out: Activity
HOP-92 [2] = assay: Growth inhibition of human HOP92 cells assessed as cell growth at 5X10'-7 M after 48 hrs by sulforhodamine B assay; type: functional; conditions: HOP-92, 48 h, read-out: Activity
SW-620 [3] = assay: Growth inhibition of human SW620 cells assessed as cell growth at 5X10'-8 M after 48 hrs by sulforhodamine B assay; type: functional; conditions: SW-620, 48 h, read-out: Activity
SK-MEL-5 = assay: Growth inhibition of human SK-MEL-5 cells after 48 hrs by sulforhodamine B assay; type: functional; conditions: SK-MEL-5, 48 h
UACC-257 [4] = assay: Growth inhibition of human UACC257 cells assessed as cell growth at 10 uM after 48 hrs by sulforhodamine B assay; type: functional; conditions: UACC-257, 48 h, read-out: Activity
RXF 393 = assay: Growth inhibition of human RXF393 cells assessed as cell growth at 5X10'-5 M after 48 hrs by sulforhodamine B assay; type: functional; conditions: RXF 393, 48 h, read-out: Activity
OVCAR-3 [5] = assay: Growth inhibition of human OVCAR3 cells after 48 hrs by sulforhodamine B assay; type: functional, cell-based; conditions: OVCAR-3, 48 h; for CC50: read-out: LC50 (the source's name)
KM12 = assay: Growth inhibition of human KM12 cells assessed as cell growth at 5X10'-5 M after 48 hrs by sulforhodamine B assay; type: functional; conditions: KM12, 48 h, read-out: Activity
U-251 = assay: Growth inhibition of human U251 cells assessed as cell growth at 5X10'-6 M after 48 hrs by sulforhodamine B assay; type: functional; conditions: U-251, 48 h, read-out: Activity
SK-MEL-28 = assay: Growth inhibition of human SK-MEL-28 cells assessed as cell growth at 10 uM after 48 hrs by sulforhodamine B assay; type: functional; conditions: SK-MEL-28, 48 h, read-out: Activity
K562 = assay: Growth inhibition of human K562 cells assessed as cell growth at 5X10'-9 M after 48 hrs by sulforhodamine B assay; type: functional; conditions: K562, 48 h, read-out: Activity
HOP-92 [6] = assay: Growth inhibition of human HOP92 cells assessed as cell growth at 5X10'-8 M after 48 hrs by sulforhodamine B assay; type: functional; conditions: HOP-92, 48 h, read-out: Activity
A549 = assay: Growth inhibition of human A549/ATCC cells assessed as cell growth at 5X10'-8 M after 48 hrs by sulforhodamine B assay; type: functional; conditions: A549, 48 h, read-out: Activity
RPMI-8226 [7] = assay: Growth inhibition of human RPMI8226 cells assessed as cell growth at 5X10'-9 M after 48 hrs by sulforhodamine B assay; type: functional; conditions: RPMI-8226, 48 h, read-out: Activity
MCF7 [8] = assay: Growth inhibition of human MCF7 cells after 48 hrs by sulforhodamine B assay; type: functional; conditions: MCF7, 48 h
UACC-257 [9] = assay: Growth inhibition of human UACC257 cells assessed as cell growth at 5X10'-9 M after 48 hrs by sulforhodamine B assay; type: functional; conditions: UACC-257, 48 h, read-out: Activity
SNB-19 = assay: Growth inhibition of human SNB19 cells assessed as cell growth at 5X10'-9 M after 48 hrs by sulforhodamine B assay; type: functional; conditions: SNB-19, 48 h, read-out: Activity
[10] = Growth inhibition of human HCC2998 cells assessed as cell growth at 5X10'-6 M after 48 hrs by sulforhodamine B assay; type: functional; conditions: HCC 2998, 48 h, read-out: Activity
786-0 = assay: Growth inhibition of human 786-0 cells assessed as cell growth at 5X10'-9 M after 48 hrs by sulforhodamine B assay; type: functional; conditions: 786-0, 48 h, read-out: Activity
HCT-116 = assay: Growth inhibition of human HCT116 cells assessed as cell growth at 5X10'-5 M after 48 hrs by sulforhodamine B assay; type: functional; conditions: HCT-116, 48 h, read-out: Activity
[11] = Growth inhibition of human NCI-ADR-RES cells after 48 hrs by sulforhodamine B assay; type: functional; conditions: for CC50: read-out: LC50 (the source's name)
MCF7 [12] = assay: Growth inhibition of human MCF7 cells assessed as cell growth at 5X10'-8 M after 48 hrs by sulforhodamine B assay; type: functional; conditions: MCF7, 48 h, read-out: Activity
RPMI-8226 [13] = assay: Growth inhibition of human RPMI8226 cells assessed as cell growth at 5X10'-8 M after 48 hrs by sulforhodamine B assay; type: functional; conditions: RPMI-8226, 48 h, read-out: Activity
OVCAR-3 [14] = assay: Growth inhibition of human OVCAR3 cells assessed as cell growth at 5X10'-5 M after 48 hrs by sulforhodamine B assay; type: functional; conditions: OVCAR-3, 48 h, read-out: Activity
SK-MEL-2 = assay: Growth inhibition of human SK-MEL-2 cells after 48 hrs by sulforhodamine B assay; type: functional; conditions: SK-MEL-2, 48 h
BT-549 = assay: Growth inhibition of human BT549 cells assessed as cell growth at 5X10'-6 M after 48 hrs by sulforhodamine B assay; type: functional; conditions: BT-549, 48 h, read-out: Activity
UACC-62 = assay: Growth inhibition of human UACC62 cells assessed as cell growth at 5X10'-9 M after 48 hrs by sulforhodamine B assay; type: functional; conditions: UACC-62, 48 h, read-out: Activity
ACHN = assay: Growth inhibition of human ACHN cells after 48 hrs by sulforhodamine B assay; type: functional; conditions: for CC50: read-out: LC50 (the source's name)
[15] = Growth inhibition of human HCC2998 cells assessed as cell growth at 10 uM after 48 hrs by sulforhodamine B assay; type: functional; conditions: HCC 2998, 48 h, read-out: Activity
OVCAR-4 = assay: Growth inhibition of human OVCAR4 cells assessed as cell growth at 10 uM after 48 hrs by sulforhodamine B assay; type: functional; conditions: OVCAR-4, 48 h, read-out: Activity
HOP-92 [16] = assay: Growth inhibition of human HOP92 cells assessed as cell growth at 10 uM after 48 hrs by sulforhodamine B assay; type: functional; conditions: HOP-92, 48 h, read-out: Activity
HOP-62 = assay: Growth inhibition of human HOP62 cells assessed as cell growth at 10 uM after 48 hrs by sulforhodamine B assay; type: functional; conditions: HOP-62, 48 h, read-out: Activity
MCF7 [17] = assay: Growth inhibition of human MCF7 cells assessed as cell growth at 5X10'-5 M after 48 hrs by sulforhodamine B assay; type: functional; conditions: MCF7, 48 h, read-out: Activity
IGROV-1 = assay: Growth inhibition of human IGROV1 cells assessed as cell growth at 5X10'-9 M after 48 hrs by sulforhodamine B assay; type: functional; conditions: IGROV-1, 48 h, read-out: Activity
NCI-H226 = assay: Growth inhibition of human NCI-H226 cells assessed as cell growth at 5X10'-7 M after 48 hrs by sulforhodamine B assay; type: functional; conditions: NCI-H226, 48 h, read-out: Activity

In the case of `COc1cc(-c2nn(-c3cccc(NC(=O)Nc4cc(C(F)(F)F)cc(C(F)(F)F)c4)c3)cc2-c2ccncc2)ccc1Cl`, the growth at 0.5 µM (SW-620 [1]) is reported as 69%, the growth at 5 µM (MDA-MB-468) is reported as -42% and the growth at 0.5 µM (HOP-92 [2]) is reported as 30%. The growth at 0.05 µM (SW-620 [3]) was 95%, the GI50 (SK-MEL-5) was 694 nM and the LC50 (concentration killing 50% of cells) (SK-MEL-5) was 2670 nM. It also gave a TGI (SK-MEL-5) of 1360 nM, a growth at 10 µM (UACC-257 [4]) of -45.1% and a growth at 50 µM (RXF 393) of -65%. The GI50 (OVCAR-3 [5]) was 411 nM, the IC50 (OVCAR-3 [5]) was 410 nM and the TGI (OVCAR-3 [5]) was 1230 nM. The CC50 (OVCAR-3 [5]) was 3390 nM, the growth at 50 µM (KM12) was -68% and the growth at 5 µM (U-251) was -77%. It also gave a growth at 10 µM (SK-MEL-28) of -28.9%, a growth at 0.005 µM (K562) of 99% and a growth at 0.05 µM (HOP-92 [6]) of 67%. The growth at 0.05 µM (A549) was 95%, the growth at 0.005 µM (RPMI-8226 [7]) was 99% and the GI50 (MCF7 [8]) was 933 nM. It also gave an LC50 (MCF7 [8]) of over 50000 nM, a TGI (MCF7 [8]) of 10900 nM and a growth at 0.005 µM (UACC-257 [9]) of 94%. For the same molecule, the growth at 0.005 µM (SNB-19) was 95%, the growth at 5 µM [10] was -70% and the growth at 0.005 µM (786-0) was 100%. For the same molecule, the growth at 50 µM (HCT-116) was -67%, the GI50 [11] was 1010 nM and the TGI [11] was 5180 nM. The CC50 [11] was over 50000 nM, the growth at 0.05 µM (MCF7 [12]) was 91% and the growth at 0.05 µM (RPMI-8226 [13]) was 95%. It also gave a growth at 50 µM (OVCAR-3 [14]) of -78%, a GI50 (SK-MEL-2) of 1020 nM and an LC50 (50% lethal concentration) (SK-MEL-2) of 3710 nM. For the same molecule, the TGI (SK-MEL-2) was 1950 nM, the growth at 5 µM (BT-549) was -27% and the growth at 0.005 µM (UACC-62) was 97%. It also gave a GI50 (ACHN) of 491 nM, a TGI (ACHN) of 5720 nM and a CC50 (ACHN) of over 50000 nM. For the same molecule, the growth at 10 µM [15] was -10.8%, the growth at 10 µM (OVCAR-4) was 17.2% and the growth at 10 µM (HOP-92 [16]) was -50.2%. For the same molecule, the growth at 10 µM (HOP-62) was -77.6%, the growth at 50 µM (MCF7 [17]) was -5% and the growth at 0.005 µM (IGROV-1) was 109%. The growth at 0.5 µM (NCI-H226) was 83%.

With `COc1cc(-c2nn(-c3cccc(NC(=O)Nc4ccc(Cl)c(Cl)c4)c3)cc2-c2ccncc2)ccc1Cl` the growth at 0.5 µM (SW-620 [1]) was 89%, the growth at 5 µM (MDA-MB-468) was -29% and the growth at 0.5 µM (HOP-92 [2]) was 35%. For the same molecule, the growth at 0.05 µM (SW-620 [3]) was 102%, the GI50 (SK-MEL-5) was 741 nM and the LC50 (concentration killing 50% of cells) (SK-MEL-5) was 3020 nM. It also gave a TGI (SK-MEL-5) of 1490 nM, a growth at 10 µM (UACC-257 [4]) of -36.6% and a growth at 50 µM (RXF 393) of -43%. It also gave a GI50 (OVCAR-3 [5]) of 697 nM, an IC50 (OVCAR-3 [5]) of 700 nM and a TGI (OVCAR-3 [5]) of 2270 nM. The CC50 (OVCAR-3 [5]) was over 50000 nM, the growth at 50 µM (KM12) was -50% and the growth at 5 µM (U-251) was -32%. The growth at 10 µM (SK-MEL-28) was 4.96%, the growth at 0.005 µM (K562) was 103% and the growth at 0.05 µM (HOP-92 [6]) was 64%. It also gave a growth at 0.05 µM (A549) of 92%, a growth at 0.005 µM (RPMI-8226 [7]) of 96% and a GI50 (MCF7 [8]) of 945 nM. It also gave an LC50 (MCF7 [8]) of over 50000 nM, a TGI (MCF7 [8]) of over 50000 nM and a growth at 0.005 µM (UACC-257 [9]) of 98%. For the same molecule, the growth at 0.005 µM (SNB-19) was 92%, the growth at 5 µM [10] was 2% and the growth at 0.005 µM (786-0) was 100%. The growth at 50 µM (HCT-116) was 2%, the GI50 [11] was 990 nM and the TGI [11] was 4670 nM. The CC50 [11] was over 50000 nM, the growth at 0.05 µM (MCF7 [12]) was 92% and the growth at 0.05 µM (RPMI-8226 [13]) was 92%. The growth at 50 µM (OVCAR-3 [14]) was -50%, the GI50 (SK-MEL-2) was 1140 nM and the LC50 (50% lethal concentration) (SK-MEL-2) was 4850 nM. For the same molecule, the TGI (SK-MEL-2) was 2350 nM, the growth at 5 µM (BT-549) was 8% and the growth at 0.005 µM (UACC-62) was 98%. It also gave a GI50 (ACHN) of 1000 nM, a TGI (ACHN) of over 50000 nM and a CC50 (ACHN) of over 50000 nM. The growth at 10 µM [15] was 2.84%, the growth at 10 µM (OVCAR-4) was 19.8% and the growth at 10 µM (HOP-92 [16]) was -34.3%. For the same molecule, the growth at 10 µM (HOP-62) was 10.2%, the growth at 50 µM (MCF7 [17]) was 3% and the growth at 0.005 µM (IGROV-1) was 97%. It also gave a growth at 0.5 µM (NCI-H226) of 82%.

Reference: ChEMBL document CHEMBL2440076, “New triarylpyrazoles as broad-spectrum anticancer agents: design, synthesis, and biological evaluation” (Eur J Med Chem, 2013)
